PMC8196973, “Synthesis, Molecular Docking Analysis and Biological Evaluations of Saccharide-Modified Thiadiazole Sulfonamide Derivatives” (International Journal of Molecular Sciences, 2021)
≈ marks a conversion by molar mass, not a printed value.

What was measured:
hCA IX = hCA IX (Homo sapiens, UniProt Q16790); experiment: hCA IX enzyme inhibition assay (4-NPA hydrolysis)
Experimental: (§2) Carbonic anhydrase can catalyze the hydrolysis of 4-nitrophenyl acetate (4-NPA). […] The experimental buffer consisted of 15 mmol/L 4-(2-hydroxyethyl)-1-piperazineethanesulfonic acid (HEPES) (pH = 7.40), 0.01% tetraethylene glycol monododecyl ether (Brij), and 100 mmol/L NaCl. […] Then, 18 μL of enzyme solution was transferred into 384-well plates in duplicate. Stock solutions of the inhibitors (10.0 mmol/L) were prepared using DMSO as solvent, and then diluted 1:3 with DMSO. […] Then 2.00 μL of each inhibitor was added to each well. All compounds were allowed to incubate with the enzyme for 15 min at 25 °C to form the Enzyme-Inhibitor (E-I) complex. After that, substrate 4-NPA (1.00 mmol/L, 20.00 μL, Sigma-Aldrich, St. Louis, MI, USA) was added into the E-I complex solution and incubated for 60, 90, 90 min at 25 °C, respectively.

hCA II = hCA II (Homo sapiens, UniProt P00918); experiment: hCA II enzyme inhibition assay (4-NPA hydrolysis)
Experimental: as §2

hCA XII = hCA XII (Homo sapiens, UniProt O43570); experiment: hCA XII enzyme inhibition assay (4-NPA hydrolysis)
Chain of hCA XII (O43570 25-354): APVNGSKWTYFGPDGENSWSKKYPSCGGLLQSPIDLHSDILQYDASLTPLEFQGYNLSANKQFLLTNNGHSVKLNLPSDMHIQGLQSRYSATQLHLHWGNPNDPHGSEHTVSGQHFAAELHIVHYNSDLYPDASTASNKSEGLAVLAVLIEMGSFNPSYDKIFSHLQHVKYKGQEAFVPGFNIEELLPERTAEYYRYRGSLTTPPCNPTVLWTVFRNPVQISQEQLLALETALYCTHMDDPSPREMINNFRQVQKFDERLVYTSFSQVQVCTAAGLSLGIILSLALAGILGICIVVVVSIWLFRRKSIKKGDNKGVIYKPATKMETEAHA
Experimental: as §2

[1] = tested on: breast adenocarcinoma MDA-MB-231 cells; experiment: CCK-8 cell viability assay, MDA-MB-231; assay type: cell-based, human; settings: Homo sapiens, MDA-MB-231; Table S2
Experimental: (§1) The MDA-MB-231, HT-29 and MG-63 cell lines were provided by KeyGEN BioTECH Ltd (Nanjing, Jiangsu, China). The cells were digested and counted to prepare a cell suspension of 5.0 × 10^4 cells/mL, and then 100 μL of cell suspension was added to each well of the 96-well cell culture plate. The plates were placed in a 37 °C, 5% CO2 incubator (Corning Incorporated, Corning, New York, USA) for 24 h. The drug was diluted with the culture medium to the required concentration, ed100 μL of the corresponding drug-containing medium was added to each well, and a negative control group was set up at the same time. The 96-well cell culture plates were placed into a normoxic incubator (37 °C, 5% CO2) and hypoxic incubator (37 °C, 5% CO2, 0.5% O2, 94.5% N2) for 48 h. Finally, the 96-well plate was stained with CCK-8 and the OD value determined (λ = 450 nm).

[2] = tested on: human colon cancer HT-29 cells; experiment: CCK-8 cell viability assay, HT-29; assay type: cell-based; settings: Homo sapiens, HT-29; Table S2
Experimental: as §1

SMILES | IC50 (hCA IX) | IC50 (hCA II) | selectivity: inhibitory activity for hCA IX higher than that for hCA II (hCA IX; hCA IX over hCA II) | IC50 (hCA XII) | IC50 [1] | IC50 [2]
Nc1ccc(C(=O)Nc2nnc(S(N)(=O)=O)s2)cc1 [Compound 12a, 4-Amino-N-(5-sulfamoyl-1,3,4-thiadiazol-2-yl)benzamide] | 44.6 ± 8.3 nM | – | – | – | – | –
Nc1cccc(C(=O)Nc2nnc(S(N)(=O)=O)s2)c1 [Compound 12b, 3-Amino-N-(5-sulfamoyl-1,3,4-thiadiazol-2-yl)benzamide] | 63.8 ± 6.3 nM | 79.1 ± 5.4 nM | – | – | – | –
Nc1ccc(C(=O)Nc2nnc(S(N)(=O)=O)s2)cc1F [Compound 12c, 4-Amino-3-fluoro-N-(5-sulfamoyl-1,3,4-thiadiazol-2-yl)benzamide] | 41.3 ± 6.2 nM | 242 ± 9.4 nM | – | – | – | –
Nc1ccc(C(=O)Nc2nnc(S(N)(=O)=O)s2)cc1Cl [Compound 12d, 4-Amino-3-chloro-N-(5-sulfamoyl-1,3,4-thiadiazol-2-yl)benzamide] | 36.5 ± 7.6 nM | 401 ± 12.3 nM | – | – | – | –
Nc1ccc(C(=O)Nc2nnc(S(N)(=O)=O)s2)cc1Br [Compound 12e, 4-Amino-3-bromo-N-(5-sulfamoyl-1,3,4-thiadiazol-2-yl)benzamide] | 65.9 ± 8.3 nM | 543 ± 10.3 nM | – | – | – | –
Nc1ccc(C(=O)Nc2nnc(S(N)(=O)=O)s2)cc1[N+](=O)[O-] [Compound 12f, 4-Amino-3-nitro-N-(5-sulfamoyl-1,3,4-thiadiazol-2-yl)benzamide] | 55.1 ± 11.5 nM | 701 ± 13.2 nM | 10 times | – | – | –
Cc1cc(C(=O)Nc2nnc(S(N)(=O)=O)s2)ccc1N [Compound 12g, 4-Amino-3-methyl-N-(5-sulfamoyl-1,3,4-thiadiazol-2-yl)benzamide] | 43.8 ± 6.6 nM | 120 ± 14.8 nM | – | – | – | –
COc1cc(C(=O)Nc2nnc(S(N)(=O)=O)s2)ccc1N [Compound 12h, 4-Amino-3-methoxy-N-(5-sulfamoyl-1,3,4-thiadiazol-2-yl)benzamide] | 36.4 ± 8.3 nM | 147 ± 15.3 nM | – | – | – | –
NS(=O)(=O)c1nnc(NC(=O)c2ccc(NC(=O)CCCC(=O)N[C@@H]3O[C@H](CO)[C@@H](O)[C@H](O)[C@H]3O)c(F)c2)s1 [Compound 14c, N^1-(2-Fluoro-4-((5-sulfamoyl-1,3,4-thiadiazol-2-yl)carbamoyl)phenyl)-N^5-((2R,3R,4S,5S,6R)-3,4,5-trihydroxy-6-(hydroxymethyl)tetrahydro-2H-pyran-2-yl)glutaramide] | 76.6 ± 6.2 nM | 215 ± 9.5 nM | – | 81.8 ± 11.1 nM | – | –
NS(=O)(=O)c1nnc(NC(=O)c2ccc(NC(=O)CCCC(=O)N[C@@H]3O[C@H](CO)[C@@H](O)[C@H](O)[C@H]3O)c(Cl)c2)s1 [Compound 14d, N^1-(2-Chloro-4-((5-sulfamoyl-1,3,4-thiadiazol-2-yl)carbamoyl)phenyl)-N^5-((2R,3R,4S,5S,6R)-3,4,5-trihydroxy-6-(hydroxymethyl)tetrahydro-2H-pyran-2-yl)glutaramide] | 280 ± 10.2 nM | 765 ± 15.1 nM | – | – | – | –
NS(=O)(=O)c1nnc(NC(=O)c2ccc(NC(=O)CCCC(=O)N[C@@H]3O[C@H](CO)[C@@H](O)[C@H](O)[C@H]3O)c(Br)c2)s1 [Compound 14e, N^1-(2-Bromo-4-((5-sulfamoyl-1,3,4-thiadiazol-2-yl)carbamoyl)phenyl)-N^5-((2R,3R,4S,5S,6R)-3,4,5-trihydroxy-6-(hydroxymethyl)tetrahydro-2H-pyran-2-yl)glutaramide] | 1082 ± 8.5 nM | 886 ± 13.7 nM | – | – | – | –
NS(=O)(=O)c1nnc(NC(=O)c2ccc(NC(=O)CCCC(=O)N[C@@H]3O[C@H](CO)[C@@H](O)[C@H](O)[C@H]3O)c([N+](=O)[O-])c2)s1 [Compound 14f, N^1-(2-Nitro-4-((5-sulfamoyl-1,3,4-thiadiazol-2-yl)carbamoyl)phenyl)-N^5-((2R,3R,4S,5S,6R)-3,4,5-trihydroxy-6-(hydroxymethyl)tetrahydro-2H-pyran-2-yl)glutaramide] | 117 ± 6.9 nM | 995 ± 10.6 nM | – | – | – | –
Cc1cc(C(=O)Nc2nnc(S(N)(=O)=O)s2)ccc1NC(=O)CCCC(=O)N[C@@H]1O[C@H](CO)[C@@H](O)[C@H](O)[C@H]1O [Compound 14g, N^1-(2-Methyl-4-((5-sulfamoyl-1,3,4-thiadiazol-2-yl)carbamoyl)phenyl)-N^5-((2R,3R,4S,5S,6R)-3,4,5-trihydroxy-6-(hydroxymethyl)tetrahydro-2H-pyran-2-yl)glutaramide] | 53.4 ± 6.2 nM | 165 ± 9.1 nM | – | 70.5 ± 10.9 nM | – | –
NS(=O)(=O)c1nnc(NC(=O)c2ccc(NC(=O)CCC(=O)NC3OC(CO)C(O)C(O)C3O)cc2)s1 [Compound 14i, N^1-(4-((5-Sulfamoyl-1,3,4-thiadiazol-2-yl)carbamoyl)phenyl)-N^4-((2R,3R,4S,5S,6R)-3,4,5-trihydroxy-6-(hydroxymethyl)tetrahydro-2H-pyran-2-yl)succinimide] | 54.9 ± 6.2 nM | 197 ± 7.9 nM | – | 52.8 ± 11.4 nM | – | –
NS(=O)(=O)c1nnc(NC(=O)c2cccc(NC(=O)CCC(=O)N[C@@H]3O[C@H](CO)[C@@H](O)[C@H](O)[C@H]3O)c2)s1 [Compound 14j, N^1-(3-((5-Sulfamoyl-1,3,4-thiadiazol-2-yl)carbamoyl)phenyl)-N^4-((2R,3R,4S,5S,6R)-3,4,5-trihydroxy-6-(hydroxymethyl)tetrahydro-2H-pyran-2-yl)succinimide] | 69.4 ± 5.7 nM | 260 ± 12.6 nM | – | 40.6 ± 6.9 nM | – | –
NS(=O)(=O)c1nnc(NC(=O)c2ccc(NC(=O)CCC(=O)N[C@@H]3O[C@H](CO)[C@@H](O)[C@H](O)[C@H]3O)c(F)c2)s1 [Compound 14k, N^1-(2-Fluoro-4-((5-sulfamoyl-1,3,4-thiadiazol-2-yl)carbamoyl)phenyl)-N^4-((2R,3R,4S,5S,6R)-3,4,5-trihydroxy-6-(hydroxymethyl)tetrahydro-2H-pyran-2-yl)succinimide] | 141 ± 8.1 nM | 474 ± 7.1 nM | – | – | – | –
NS(=O)(=O)c1nnc(NC(=O)c2ccc(NC(=O)CCC(=O)N[C@@H]3O[C@H](CO)[C@@H](O)[C@H](O)[C@H]3O)c(Cl)c2)s1 [Compound 14l, N^1-(2-Chloro-4-((5-sulfamoyl-1,3,4-thiadiazol-2-yl)carbamoyl)phenyl)-N^4-((2R,3R,4S,5S,6R)-3,4,5-trihydroxy-6-(hydroxymethyl)tetrahydro-2H-pyran-2-yl)succinimide] | 256 ± 7.9 nM | 612 ± 8.5 nM | – | – | – | –
NS(=O)(=O)c1nnc(NC(=O)c2ccc(NC(=O)CCC(=O)N[C@@H]3O[C@H](CO)[C@@H](O)[C@H](O)[C@H]3O)c(Br)c2)s1 [Compound 14m, N^1-(2-Bromo-4-((5-sulfamoyl-1,3,4-thiadiazol-2-yl)carbamoyl)phenyl)-N^4-((2R,3R,4S,5S,6R)-3,4,5-trihydroxy-6-(hydroxymethyl)tetrahydro-2H-pyran-2-yl)succinimide] | 865 ± 10.7 nM | 824 ± 11.1 nM | – | – | – | –
NS(=O)(=O)c1nnc(NC(=O)c2ccc(NC(=O)CCC(=O)N[C@@H]3O[C@H](CO)[C@@H](O)[C@H](O)[C@H]3O)c([N+](=O)[O-])c2)s1 [Compound 14n, N^1-(2-Nitro-4-((5-sulfamoyl-1,3,4-thiadiazol-2-yl)carbamoyl)phenyl)-N^4-((2R,3R,4S,5S,6R)-3,4,5-trihydroxy-6-(hydroxymethyl)tetrahydro-2H-pyran-2-yl)succinimide] | 291 ± 10.9 nM | 1400 ± 24.6 nM | – | – | – | –
Cc1cc(C(=O)Nc2nnc(S(N)(=O)=O)s2)ccc1NC(=O)CCC(=O)N[C@@H]1O[C@H](CO)[C@@H](O)[C@H](O)[C@H]1O [Compound 14o, N^1-(2-Methy-4-((5-sulfamoyl-1,3,4-thiadiazol-2-yl)carbamoyl)phenyl)-N^4-((2R,3R,4S,5S,6R)-3,4,5-trihydroxy-6-(hydroxymethyl)tetrahydro-2H-pyran-2-yl)succinimide] | 135 ± 7 nM | 270 ± 13.9 nM | – | – | – | –
CC(=O)O[C@H]1C(=O)[C@@]2(C)[C@H]([C@H](OC(=O)c3ccccc3)[C@]3(O)C[C@H](OC(=O)[C@H](O)[C@@H](NC(=O)c4ccccc4)c4ccccc4)C(C)=C1C3(C)C)[C@]1(OC(C)=O)CO[C@@H]1C[C@@H]2O [Taxol, reference compound] | – | – | – | – | 0.099 µg/mL (≈ 0.116 µM) | 0.111 µg/mL (≈ 0.13 µM)
